According to patent publication US20080009418A1, “Selective Inhibitors” (Alchemia LTD., priority 2004, published 2008):

Assays:
Human Melanocortin (MC3) = target: T1, Human Melanocortin (MC3) (Homo sapiens, UniProt P41968); experiment: Radioligand binding, human melanocortin MC3 membranes, FlashPlate, [125I]-NDP-αMSH; conditions: compound at 10 μM
T1 construct: purchased Perkin Elmer Biosignal
In short: (§1)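 Cloned human receptor membranes were coated onto FlashPlate wells and incubated with radioligand and compound (added from a 0.5 mM DMSO daughter plate) for 1 hour at room temperature in the dark. Scintillation counting gave percent inhibition, with DMSO defining total and reference ligand defining non-specific binding.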

[1] = target: T2, Human neuropeptide Y (NPY-Y1) (Homo sapiens, UniProt P25929); experiment: Radioligand binding, human neuropeptide Y NPY-Y1 membranes, FlashPlate, [125I]-PYY; conditions: compound at 10 μM
T2 construct: purchased Perkin Elmer Biosignal
T2 sequence (P25929 1-384): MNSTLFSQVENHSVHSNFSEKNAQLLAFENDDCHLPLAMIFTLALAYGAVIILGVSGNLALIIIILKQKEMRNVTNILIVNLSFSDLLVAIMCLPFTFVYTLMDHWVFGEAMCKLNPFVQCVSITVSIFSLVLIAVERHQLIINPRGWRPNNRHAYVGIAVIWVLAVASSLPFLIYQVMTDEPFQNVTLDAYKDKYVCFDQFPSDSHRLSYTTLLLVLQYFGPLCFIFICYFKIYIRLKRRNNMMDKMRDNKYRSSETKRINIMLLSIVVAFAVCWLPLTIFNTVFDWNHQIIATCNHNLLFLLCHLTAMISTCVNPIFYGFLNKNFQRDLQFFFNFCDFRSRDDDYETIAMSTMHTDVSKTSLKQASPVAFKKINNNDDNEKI
In short: as §1

Human μ-opioid (MOP) = target: T3, Human μ-opioid (MOP) (Homo sapiens, UniProt P35372); experiment: Radioligand binding, human μ-opioid (MOP) membranes, FlashPlate, [3H]-Naloxone; conditions: compound at 10 μM
T3 construct: purchased Perkin Elmer Biosignal
In short: as §1

Human κ-Opioid (KOP) = target: T4, Human κ-Opioid (KOP) (Homo sapiens, UniProt P41145); experiment: Radioligand binding, human κ-opioid (KOP) membranes, filtration, [3H]-Diprenorphine; conditions: compound at 10 μM
T4 construct: purchased Perkin Elmer Biosignal
In short: (§2)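 Filtration binding on cloned human receptor membranes (1 Unit/well), [125I]-Substance P for NK1 and [3H]-Diprenorphine for KOP, 1 h at room temperature. Filters PEI-presoaked, washed with cold 50 mM Tris-HCl pH 7.4, counted by scintillation; percent inhibition calculated, reference ligand defining non-specific binding.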

Mouse urotensin (mUR2) = target: T5, Mouse urotensin (mUR2) (Mus musculus, UniProt Q8VIH9); experiment: Radioligand binding, mouse urotensin mUR2 membranes, FlashPlate, [125I]-Urotensin II; conditions: compound at 10 μM
T5 construct: purchased Perkin Elmer Biosignal
T5 sequence (Q8VIH9 1-385): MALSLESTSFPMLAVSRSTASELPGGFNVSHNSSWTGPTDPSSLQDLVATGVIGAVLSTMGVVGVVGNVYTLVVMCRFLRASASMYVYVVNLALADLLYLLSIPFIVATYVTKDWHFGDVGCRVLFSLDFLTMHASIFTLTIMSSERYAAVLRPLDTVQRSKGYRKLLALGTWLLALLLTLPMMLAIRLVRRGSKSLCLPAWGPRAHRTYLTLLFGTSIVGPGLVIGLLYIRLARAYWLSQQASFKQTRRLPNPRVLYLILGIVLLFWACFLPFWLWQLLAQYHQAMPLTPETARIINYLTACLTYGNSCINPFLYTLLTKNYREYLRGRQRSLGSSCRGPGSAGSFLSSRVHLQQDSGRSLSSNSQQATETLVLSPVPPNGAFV
In short: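 Cloned mouse urotensin (mUR2) receptor membranes from Perkin Elmer Biosignal were immobilized in FlashPlate microplates using a proprietary coating. Each well got 19.5 μl buffer, then 0.5 μl of DMSO, reference ligand, or compound. Adding 5 μl of [125I]-Urotensin II, diluted to 5× final concentration in binding buffer, started binding. Plates were sealed with TopSeal-A and incubated 1 hour at room temperature in the dark. Wells were counted for 30 seconds each on a TopCount after a 60-second delay, and percentage inhibition was calculated.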

Human opioid (ORL1) = target: T6, Human opioid (ORL1) (Homo sapiens, UniProt P41146); experiment: Radioligand binding, human opioid ORL1 membranes, FlashPlate, [125I]-Nociceptin; conditions: compound at 10 μM
T6 construct: purchased Perkin Elmer Biosignal
In short: as §1

Human δ-opioid (DOP) = target: T7, Human δ-opioid (DOP) (Homo sapiens, UniProt P41143); experiment: Radioligand binding, human δ-opioid (DOP) membranes, FlashPlate, [3H]-Bremazocine; conditions: compound at 10 μM
T7 construct: purchased Perkin Elmer Biosignal
In short: as §1

[2] = target: T8, Human melanin-concentrating hormone (MCH1) (Homo sapiens, UniProt Q99705); experiment: Radioligand binding, human melanin-concentrating hormone MCH1 membranes, FlashPlate, [125I]-S36057; conditions: compound at 10 μM; for A6: inhibition of radioligand binding, human melanin-concentrating hormone (MCH1): [125I]-S36057
T8 construct: purchased Perkin Elmer Biosignal
In short: as §1

Human neurokinin (NK1) = target: T9, Human neurokinin (NK1) (Homo sapiens, UniProt P25103); experiment: Radioligand binding, human neurokinin NK1 membranes, filtration, [125I]-Substance P; conditions: compound at 10 μM
T9 construct: purchased Perkin Elmer Biosignal
In short: as §2

Human melanocortin (MC5) = target: T10, Human melanocortin (MC5) (Homo sapiens, UniProt P33032); experiment: Radioligand binding, human melanocortin MC5 membranes, FlashPlate, [125I]-NDP-αMSH; conditions: compound at 10 μM
T10 construct: purchased Perkin Elmer Biosignal
In short: as §1

Human Melanocortin (MC4) = target: T11, Human Melanocortin (MC4) (Homo sapiens, UniProt P32245); experiment: Radioligand binding, human melanocortin MC4 membranes, FlashPlate, [125I]-NDP-αMSH; conditions: compound at 10 μM
T11 construct: purchased Perkin Elmer Biosignal
In short: as §1

T7 sequence (P41143 whole entry): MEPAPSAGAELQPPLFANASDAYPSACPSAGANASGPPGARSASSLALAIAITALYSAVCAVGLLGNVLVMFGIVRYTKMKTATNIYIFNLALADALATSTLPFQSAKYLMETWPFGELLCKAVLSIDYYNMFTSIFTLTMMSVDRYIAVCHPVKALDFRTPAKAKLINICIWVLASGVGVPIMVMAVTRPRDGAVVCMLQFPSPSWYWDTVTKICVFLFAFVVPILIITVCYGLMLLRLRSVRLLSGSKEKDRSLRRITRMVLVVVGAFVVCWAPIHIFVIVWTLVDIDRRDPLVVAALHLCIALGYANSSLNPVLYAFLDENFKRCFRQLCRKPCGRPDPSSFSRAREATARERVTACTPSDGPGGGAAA
T4 sequence (P41145 whole entry): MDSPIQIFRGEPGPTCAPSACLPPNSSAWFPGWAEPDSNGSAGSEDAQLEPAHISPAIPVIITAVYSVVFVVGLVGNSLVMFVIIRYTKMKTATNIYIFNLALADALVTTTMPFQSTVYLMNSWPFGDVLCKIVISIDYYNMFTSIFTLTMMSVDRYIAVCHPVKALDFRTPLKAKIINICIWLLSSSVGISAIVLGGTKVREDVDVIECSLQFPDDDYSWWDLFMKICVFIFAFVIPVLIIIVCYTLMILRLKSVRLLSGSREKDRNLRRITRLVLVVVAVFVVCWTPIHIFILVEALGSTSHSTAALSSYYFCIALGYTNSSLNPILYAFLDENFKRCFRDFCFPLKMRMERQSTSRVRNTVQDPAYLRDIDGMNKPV
T1 sequence (P41968 whole entry): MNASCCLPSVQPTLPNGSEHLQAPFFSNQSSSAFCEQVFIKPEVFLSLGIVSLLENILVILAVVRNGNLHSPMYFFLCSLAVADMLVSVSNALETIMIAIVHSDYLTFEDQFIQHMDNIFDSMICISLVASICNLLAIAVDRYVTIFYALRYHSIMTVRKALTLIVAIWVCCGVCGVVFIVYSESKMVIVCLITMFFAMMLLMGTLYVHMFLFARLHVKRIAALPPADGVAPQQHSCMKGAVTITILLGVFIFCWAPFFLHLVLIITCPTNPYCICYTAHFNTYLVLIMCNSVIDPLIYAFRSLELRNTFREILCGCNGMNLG
T10 sequence (P33032 whole entry): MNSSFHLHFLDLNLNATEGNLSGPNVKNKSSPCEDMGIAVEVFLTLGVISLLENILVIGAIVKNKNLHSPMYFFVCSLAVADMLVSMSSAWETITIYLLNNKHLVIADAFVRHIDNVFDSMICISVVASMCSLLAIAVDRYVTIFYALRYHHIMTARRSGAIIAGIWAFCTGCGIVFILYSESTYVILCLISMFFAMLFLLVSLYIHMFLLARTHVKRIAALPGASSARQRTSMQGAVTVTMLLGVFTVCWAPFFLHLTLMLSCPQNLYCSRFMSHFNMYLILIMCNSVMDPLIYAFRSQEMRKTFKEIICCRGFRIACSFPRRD
T9 sequence (P25103 whole entry): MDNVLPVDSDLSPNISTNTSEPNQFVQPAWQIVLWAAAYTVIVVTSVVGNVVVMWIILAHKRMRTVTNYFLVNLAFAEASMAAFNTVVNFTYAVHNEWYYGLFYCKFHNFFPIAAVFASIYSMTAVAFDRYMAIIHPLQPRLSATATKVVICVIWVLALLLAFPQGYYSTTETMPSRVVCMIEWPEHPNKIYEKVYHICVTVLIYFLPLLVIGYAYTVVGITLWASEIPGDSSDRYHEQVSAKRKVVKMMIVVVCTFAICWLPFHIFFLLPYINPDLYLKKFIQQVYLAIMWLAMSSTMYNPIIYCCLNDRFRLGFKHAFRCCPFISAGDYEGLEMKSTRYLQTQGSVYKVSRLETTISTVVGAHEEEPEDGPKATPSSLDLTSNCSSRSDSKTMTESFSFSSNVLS
T6 sequence (P41146 whole entry): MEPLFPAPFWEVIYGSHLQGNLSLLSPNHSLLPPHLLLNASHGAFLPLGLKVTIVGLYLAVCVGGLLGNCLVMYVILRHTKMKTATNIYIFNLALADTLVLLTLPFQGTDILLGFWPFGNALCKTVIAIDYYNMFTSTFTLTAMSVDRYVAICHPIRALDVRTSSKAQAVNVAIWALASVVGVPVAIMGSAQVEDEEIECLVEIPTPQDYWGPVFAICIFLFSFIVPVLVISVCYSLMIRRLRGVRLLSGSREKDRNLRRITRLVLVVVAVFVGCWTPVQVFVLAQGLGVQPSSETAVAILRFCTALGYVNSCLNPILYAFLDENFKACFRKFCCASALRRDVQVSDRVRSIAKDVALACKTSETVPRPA
T3 sequence (P35372 whole entry): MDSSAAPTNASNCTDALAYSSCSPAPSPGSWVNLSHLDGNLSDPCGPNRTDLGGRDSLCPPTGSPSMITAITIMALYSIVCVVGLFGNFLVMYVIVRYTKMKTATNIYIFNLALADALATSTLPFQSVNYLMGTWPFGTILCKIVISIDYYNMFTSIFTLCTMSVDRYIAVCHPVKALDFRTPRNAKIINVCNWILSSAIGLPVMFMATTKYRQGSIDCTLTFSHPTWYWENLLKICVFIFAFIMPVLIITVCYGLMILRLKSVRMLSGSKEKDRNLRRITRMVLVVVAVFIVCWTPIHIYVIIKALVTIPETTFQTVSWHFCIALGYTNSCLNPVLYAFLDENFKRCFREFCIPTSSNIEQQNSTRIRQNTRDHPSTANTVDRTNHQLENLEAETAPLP
T11 sequence (P32245 whole entry): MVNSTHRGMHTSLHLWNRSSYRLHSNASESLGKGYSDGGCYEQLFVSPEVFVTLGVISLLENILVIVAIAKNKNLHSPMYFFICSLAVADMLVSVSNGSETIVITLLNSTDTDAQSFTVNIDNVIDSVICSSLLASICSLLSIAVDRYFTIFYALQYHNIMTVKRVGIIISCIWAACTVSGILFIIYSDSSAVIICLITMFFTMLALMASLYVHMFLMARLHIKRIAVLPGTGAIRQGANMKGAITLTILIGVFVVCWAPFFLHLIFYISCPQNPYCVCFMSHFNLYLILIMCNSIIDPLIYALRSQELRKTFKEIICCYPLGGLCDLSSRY
T8 sequence (Q99705 whole entry): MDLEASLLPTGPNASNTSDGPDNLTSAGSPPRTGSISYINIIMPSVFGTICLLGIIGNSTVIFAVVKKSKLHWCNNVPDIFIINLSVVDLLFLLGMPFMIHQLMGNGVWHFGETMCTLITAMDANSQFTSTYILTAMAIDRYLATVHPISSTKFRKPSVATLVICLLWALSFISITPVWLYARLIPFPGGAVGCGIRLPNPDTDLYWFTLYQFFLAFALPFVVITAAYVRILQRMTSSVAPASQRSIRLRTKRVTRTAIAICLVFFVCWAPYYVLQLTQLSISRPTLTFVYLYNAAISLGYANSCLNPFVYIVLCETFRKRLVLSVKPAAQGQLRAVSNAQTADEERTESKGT

Structure (SMILES)	A3: inhibition of radioligand binding, human melanocortin (MC3) (Human Melanocortin (MC3); [125I]-NDP-αMSH)	A9: inhibition of radioligand binding, human neuropeptide Y (NPY-Y1) ([1]; [125I]-PYY)	A7: inhibition of radioligand binding, human μ-opioid (MOP) (Human μ-opioid (MOP); [3H]-Naloxone)	A2: inhibition of radioligand binding, human κ-opioid (KOP) (Human κ-Opioid (KOP); [3H]-Diprenorphine)	A11: inhibition of radioligand binding, mouse urotensin (mUR2) (Mouse urotensin (mUR2); [125I]-Urotensin II)	A10: inhibition of radioligand binding, human opioid (ORL1) (Human opioid (ORL1); [125I]-Nociceptin)	A1: inhibition of radioligand binding, human δ-opioid (DOP) (Human δ-opioid (DOP); [3H]-Bremazocine)	A6: inhibition of radioligand binding, human melanin-concentrating hormone (MCH1) [2]	A8: inhibition of radioligand binding, human neurokinin (NK1) (Human neurokinin (NK1); [125I]-Substance P)	A5: inhibition of radioligand binding, human melanocortin (MC5) (Human melanocortin (MC5); [125I]-NDP-αMSH)	A4: inhibition of radioligand binding, human melanocortin (MC4) (Human Melanocortin (MC4); [125I]-NDP-αMSH)	further results
N=C(N)NCCC(=O)NC1C(OCc2ccc(-c3ccccc3)cc2)OC(COCc2ccccc2)C(O)C1OCc1ccc2ccccc2c1 (centres unmarked) [compound 412]	–	–	–	–	–	–	–	–	–	–	–	A3: inhibition of radioligand binding (Human Melanocortin (MC3); [125I]-NDP-αMSH, human MC3 membranes): + (“+” indicates greater than 50% inhibition at 10 μM); A9: inhibition of radioligand binding ([1]; [125I]-PYY, human NPY-Y1 membranes): − (“−” indicates less than 50% inhibition at 10 μM); A7: inhibition of radioligand binding (Human μ-opioid (MOP); [3H]-Naloxone, human MOP membranes): − (“−” indicates less than 50% inhibition at 10 μM); A2: inhibition of radioligand binding (Human κ-Opioid (KOP); [3H]-Diprenorphine, human KOP membranes): − (“−” indicates less than 50% inhibition at 10 μM); A11: inhibition of radioligand binding (Mouse urotensin (mUR2); [125I]-Urotensin II, mouse mUR2 membranes): − (“−” indicates less than 50% inhibition at 10 μM); A10: inhibition of radioligand binding (Human opioid (ORL1); [125I]-Nociceptin, human ORL1 membranes): + (“+” indicates greater than 50% inhibition at 10 μM); A1: inhibition of radioligand binding (Human δ-opioid (DOP); [3H]-Bremazocine, human DOP membranes): − (“−” indicates less than 50% inhibition at 10 μM); A6: inhibition of radioligand binding ([2]; [125I]-S36057, human MCH1 membranes): + (“+” indicates greater than 50% inhibition at 10 μM); A8: inhibition of radioligand binding (Human neurokinin (NK1); [125I]-Substance P, human NK1 membranes): + (“+” indicates greater than 50% inhibition at 10 μM); A5: inhibition of radioligand binding (Human melanocortin (MC5); [125I]-NDP-αMSH, human MC5 membranes): + (“+” indicates greater than 50% inhibition at 10 μM); A4: inhibition of radioligand binding (Human Melanocortin (MC4); [125I]-NDP-αMSH, human MC4 membranes): + (“+” indicates greater than 50% inhibition at 10 μM)
CSC1OC(COCc2cccc(N)c2)C(O)C(OCc2ccc(Cl)cc2)C1NC(=O)c1ccccc1 (centres unmarked) [compound 327]	− (“−” indicates less than 50% inhibition at 10 μM)	− (“−” indicates less than 50% inhibition at 10 μM)	− (“−” indicates less than 50% inhibition at 10 μM)	− (“−” indicates less than 50% inhibition at 10 μM)	− (“−” indicates less than 50% inhibition at 10 μM)	− (“−” indicates less than 50% inhibition at 10 μM)	− (“−” indicates less than 50% inhibition at 10 μM)	− (“−” indicates less than 50% inhibition at 10 μM)	+ (“+” indicates greater than 50% inhibition at 10 μM)	− (“−” indicates less than 50% inhibition at 10 μM)	− (“−” indicates less than 50% inhibition at 10 μM)	–
CSC1OC(COCc2ccccc2)C(O)C(OCc2ccc3ccccc3c2)C1NC(=O)CN (centres unmarked) [compound 301]	− (“−” indicates less than 50% inhibition at 10 μM)	− (“−” indicates less than 50% inhibition at 10 μM)	− (“−” indicates less than 50% inhibition at 10 μM)	− (“−” indicates less than 50% inhibition at 10 μM)	− (“−” indicates less than 50% inhibition at 10 μM)	− (“−” indicates less than 50% inhibition at 10 μM)	− (“−” indicates less than 50% inhibition at 10 μM)	− (“−” indicates less than 50% inhibition at 10 μM)	+ (“+” indicates greater than 50% inhibition at 10 μM)	− (“−” indicates less than 50% inhibition at 10 μM)	− (“−” indicates less than 50% inhibition at 10 μM)	–
COC[C@H]1OC(OCc2ccc3ccccc3c2)[C@H](NC(=O)CCNC(=N)N)[C@@H](OCc2ccc3ccccc3c2)[C@@H]1O (some centres unmarked) [compound 18]	–	–	–	–	–	–	–	–	–	–	–	A3 radioligand binding inhibition (Human Melanocortin (MC3); human melanocortin MC3 membranes): − (“−” indicates less than 50% inhibition at 10 μM); A9 radioligand binding inhibition ([1]; human NPY-Y1 membranes): − (“−” indicates less than 50% inhibition at 10 μM); A7 radioligand binding inhibition (Human μ-opioid (MOP); human μ-opioid (MOP) membranes): + (“+” indicates greater than 50% inhibition at 10 μM); A2 radioligand binding inhibition (Human κ-Opioid (KOP); human κ-opioid (KOP) membranes): − (“−” indicates less than 50% inhibition at 10 μM); A11 radioligand binding inhibition (Mouse urotensin (mUR2); mouse urotensin mUR2 membranes): − (“−” indicates less than 50% inhibition at 10 μM); A10 radioligand binding inhibition (Human opioid (ORL1); human ORL1 membranes): − (“−” indicates less than 50% inhibition at 10 μM); A1 radioligand binding inhibition (Human δ-opioid (DOP); human δ-opioid (DOP) membranes): − (“−” indicates less than 50% inhibition at 10 μM); A6 radioligand binding inhibition ([2]; human MCH1 membranes): + (“+” indicates greater than 50% inhibition at 10 μM); A8 radioligand binding inhibition (Human neurokinin (NK1); human neurokinin NK1 membranes): + (“+” indicates greater than 50% inhibition at 10 μM); A5 radioligand binding inhibition (Human melanocortin (MC5); human melanocortin MC5 membranes): + (“+” indicates greater than 50% inhibition at 10 μM); A4 radioligand binding inhibition (Human Melanocortin (MC4); human melanocortin MC4 membranes): − (“−” indicates less than 50% inhibition at 10 μM)
